Reference: PubChem BioAssay AID1963844 (Molecular Pharmacology Branch, DTP, NCI, 2024)
Values joined by “and” are separate entries in the source; they are usually repeats but may differ in a detail not shown here. Equal values may be shown once.

System: 422866-222-R5-J1-PDC complex spheroid viability
Assay: Anticancer human tumor 422866-222-R5-J1-PDC patient-derived pancreatic adenocarcinoma cell line growth inhibition [POLQ]
Conditions: for viability, T/C: stronger effect = lower value
Experimental: Multicellular complex tumor spheroid response to Polymerase (POL) inhibitors (novobiocin, ART-558, RP6685) in combination with a variety of drugs and investigational agents in selected tumor cell lines
The POL inhibitors (novobiocin, ART-558, and RP6685) were evaluated both individually and in combination with standard of care and investigational anticancer small molecules within a complex spheroid model of solid tumors. . Complex spheroids include a stromal component modeled by human endothelial cells (HUVEC) and fibroblasts modeled by human mesenchymal stem cells (MSCs). The concentration ranges selected for each drug and investigational agent were based upon clinically achievable concentrations if the clinical Cmax of the agent was known.
Compounds. The drugs and investigational agents: novobiocin (NSC847541), ART-558 (NSC835418), RP-6685 (NSC848927), peposertib (NSC802822), ceralasertib (NSC780249), elimusertib (NSC800525), camonsertib (NSC841442), AZD-1390 (NSC803789), olaparib (NSC753686), talazoparib (NSC767125), rucaparib (NSC756644), sotorasib (NSC818433), MRTX-1133 (NSC836407), SN-38 (NSC673596), topotecan (NSC609699), epotoside (NSC141540), doxorubicin (NSC123127), gemcitabine (NSC613327), 5-fluorouracil (NSC19893), paclitaxel (NSC125973), vemurafenib (NSC761431), MSA-2 (NSC828583), SN-011 (NSC837082), adavosertib (NSC754352), prexasertib (NSC758257), carboplatin (NSC241240) and oxaliplatin (NSC266046), were obtained from the National Cancer Institute (NCI) Developmental Therapeutics Program Chemical Repository (21). The FDA-approved anticancer drug set is available from the Developmental Therapeutics Program at https://dtp.cancer.gov/organization/dscb/obtaining/. […] The stock solutions were prepared in dimethyl sulfoxide (DMSO, Sigma-Aldrich, St. Louis, MO, cat. D2650), except for the platinum compounds which were prepared in saline (Quality Biological, Gaithersburg, MD, cat. 114-055-101), at 800-fold the tested concentration and stored at -70 degrees C prior to their use. All drugs and investigational agents were tested over a range starting from a high concentration at or near the clinical Cmax and decreasing in half-log increments. If the clinical Cmax for an agent had not been determined, the highest concentration tested was 10 microM, except for SN-38, which was tested at a high concentration of 1 microM.
Cell Culture. All cells were maintained in an incubator at 37 degrees C and 5% CO2 with 95% humidity. The PDC lines were cultured according to standard operating procedures established by the NCI PDMR (https://pdmr.cancer.gov). Table 3 of the manuscript, lists the cell lines along with the number of the three cell types plated to form the mct-spheroids and media for tumor cell growth. After thawing, all PDC lines, except 997537-175-T-J1-PDC and 415267-285-R-J2-PDC, were cultured in Matrigel-coated flasks prepared with a working solution of 1X Ham's F-12 nutrient mix, without supplementation (Thermo Fisher Scientific, cat. 11765054), 100 U/mL penicillin-streptomycin (Thermo Fisher Scientific, cat. 15140122), and 2.5% Matrigel (Corning Inc., Corning, NY, cat. 354248) for the first three passages. The two PDC lines 997537-175-T-J1-PDC and 415267-285-R-J2-PDC were cultured on uncoated flasks. The 857933-349-R-J2-PDC line was cultured in 6C/Colon 1B media containing advanced DMEM/F-12 (Thermo Fisher Scientific, cat. 12634028), 10 mM HEPES (Thermo Fisher Scientific, cat. 15630080), 1X GlutaMAX supplement (Thermo Fisher Scientific, cat. 35050061), 0.1 mg/mL primocin (InvivoGen, San Diego, CA, cat. ant-pm-2), 10% defined fetal bovine serum, heat inactivated (HyClone Laboratories Inc., Logan, UT, cat. SH30070.03HI), 50% L-WRN conditioned media (ATCC, cat. CRL-3276), 1.25 mM N-Acetyl-L-cysteine (Sigma-Aldrich, cat. A9165), 10 mM nicotinamide (Sigma-Aldrich, cat. N0636), 1X B-27 supplement (Thermo Fisher Scientific, cat. 17504044), 1X N-2 supplement (Thermo Fisher Scientific, cat. […]
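Further: spheroids exposed to compounds for one week before readout.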
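Wherever viability, T/C is given: percent of DMSO vehicle wells luminescence so 100% = untreated viability.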

CCc1c2c(nc3ccc(O)cc13)-c1cc3c(c(=O)n1C2)COC(=O)[C@]3(O)CC
viability, T/C (compound 0.00316 µM): 44.8% and 37.1% and 42.1%
viability, T/C (compound 0.01 µM): 37.5% and 32.6% and 33.8%
viability, T/C (compound 0.0316 µM): 39.4% and 34.2% and 30.3%
viability, T/C (compound 0.1 µM): 39.1% and 34% and 31.1%
viability, T/C (compound 0.316 µM): 32.7% and 37.2% and 29.6%
viability, T/C (compound 1 µM): 24.8% and 18.2% and 24.5%
IC50 (curve of compound): < 0.00316 µM

C#Cc1c(F)ccc2cc(O)cc(-c3ncc4c(N5CC6CCC(C5)N6)nc(OCC56CCCN5CC(F)C6)nc4c3F)c12 (stereo unspecified)
viability, T/C (compound 0.0316 µM): 93% and 91.1% and 102%
viability, T/C (compound 0.1 µM): 80.5% and 89.6% and 83.2%
viability, T/C (compound 0.316 µM): 60.1% and 59.7% and 68.7%
viability, T/C (compound 1 µM): 44% and 50.6% and 51.8%
viability, T/C (compound 3.16 µM): 33.9% and 34.4% and 34.3%
viability, T/C (compound 10 µM): 26.9% and 24.2% and 26%
IC50 (curve of compound): 0.666 µM and 0.869 µM and 1.06 µM

CC1COCCN1c1cc(C2(O)CC3CCC(C2)O3)c2cnn(-c3ccn[nH]3)c2n1 (stereo unspecified) + COC1C(OC(N)=O)C(O)C(Oc2ccc3c(O)c(NC(=O)c4ccc(O)c(CC=C(C)C)c4)c(=O)oc3c2C)OC1(C)C
IC50 (curve of first compound, second compound 0.0316 µM): > 10 µM
IC50 (curve of first compound, second compound 0.1 µM): > 10 µM
IC50 (curve of first compound, second compound 0.316 µM): < 0.0316 µM
IC50 (curve of first compound, second compound 1 µM): > 10 µM
IC50 (curve of first compound, second compound 3.16 µM): > 10 µM
IC50 (curve of first compound, second compound 10 µM): > 10 µM
viability, T/C (second compound 0.0316 µM, first compound 0.0316 µM): 71.4%
viability, T/C (second compound 0.0316 µM, first compound 0.1 µM): 47.9%
viability, T/C (second compound 0.0316 µM, first compound 0.316 µM): 45.8%
viability, T/C (second compound 0.0316 µM, first compound 1 µM): 83.7%
viability, T/C (second compound 0.0316 µM, first compound 3.16 µM): 70.7%
viability, T/C (second compound 0.0316 µM, first compound 10 µM): 79.8%
viability, T/C (second compound 0.1 µM, first compound 0.0316 µM): 73.5%
viability, T/C (second compound 0.1 µM, first compound 0.1 µM): 47%
viability, T/C (second compound 0.1 µM, first compound 0.316 µM): 41.9%
viability, T/C (second compound 0.1 µM, first compound 1 µM): 65.3%
viability, T/C (second compound 0.1 µM, first compound 3.16 µM): 76.8%
viability, T/C (second compound 0.1 µM, first compound 10 µM): 66.4%
viability, T/C (second compound 0.316 µM, first compound 0.0316 µM): 72.9%
viability, T/C (second compound 0.316 µM, first compound 0.1 µM): 36.2%
viability, T/C (second compound 0.316 µM, first compound 0.316 µM): 37%
viability, T/C (second compound 0.316 µM, first compound 1 µM): 77.8%
viability, T/C (second compound 0.316 µM, first compound 3.16 µM): 71.5%
viability, T/C (second compound 0.316 µM, first compound 10 µM): 71.7%
viability, T/C (second compound 1 µM, first compound 0.0316 µM): 75.6%
viability, T/C (second compound 1 µM, first compound 0.1 µM): 45.3%
viability, T/C (second compound 1 µM, first compound 0.316 µM): 47.8%
viability, T/C (second compound 1 µM, first compound 1 µM): 77.7%
viability, T/C (second compound 1 µM, first compound 3.16 µM): 63.4%
viability, T/C (second compound 1 µM, first compound 10 µM): 77.7%
viability, T/C (second compound 3.16 µM, first compound 0.0316 µM): 84.3%
viability, T/C (second compound 3.16 µM, first compound 0.1 µM): 44.4%
viability, T/C (second compound 3.16 µM, first compound 0.316 µM): 48%
viability, T/C (second compound 3.16 µM, first compound 1 µM): 75.2%
viability, T/C (second compound 3.16 µM, first compound 3.16 µM): 67.5%
viability, T/C (second compound 3.16 µM, first compound 10 µM): 71.1%
viability, T/C (second compound 10 µM, first compound 0.0316 µM): 79.1%
viability, T/C (second compound 10 µM, first compound 0.1 µM): 52.7%
viability, T/C (second compound 10 µM, first compound 0.316 µM): 40.7%
viability, T/C (second compound 10 µM, first compound 1 µM): 82.9%
viability, T/C (second compound 10 µM, first compound 3.16 µM): 75.2%
viability, T/C (second compound 10 µM, first compound 10 µM): 65.6%
